Assay results taken from paper PMC6148246, “HS-1371, a novel kinase inhibitor of RIP3-mediated necroptosis” (Experimental & Molecular Medicine, 2018).

Biological target: RIP3 (Homo sapiens, UniProt Q9Y572)
Experiment: Radiometric kinase assay of RIP3 (Reaction Biology)
Assay type: biochemical
Design: purchased Reaction Biology Corp (Malvern, PA, USA)
Details: 10 μM ATP, 20 μM MBP substrate; read-out: IC50 against RIP3
Protocol: The inhibitory activities of all compounds toward RIP3 were measured by Reaction Biology Corp (Malvern, PA, USA) by means of radiometric kinase assays ([…]). The enzymatic activity of RIP3 was monitored using 20 μM of myelin basic protein (MBP) dissolved in freshly prepared reaction buffer (20 mM HEPES (pH 7.5), 10 mM MgCl2, 1 mM EGTA, 0.02% BRIJ-35, 0.02 mg/mL BSA, 0.1 mM Na3VO4, 2 mM DTT, 1% DMSO). Each putative RIP3 inhibitor was dissolved in 100% DMSO at specific concentrations and serially diluted with epMotion 5070 in DMSO. Human RIP3 and 20 μM of peptide substrate (MBP) were added to the reaction buffer. After delivering the candidate inhibitor dissolved in DMSO to the kinase reaction mixture using Acoustic technology (Echo550; nanoliter range), the reaction mixture was incubated for 20 min at room temperature. To initiate the enzymatic reaction, ^33P-ATP with specific activity of 10 μCi/μL was added to the reaction mixture to reach a final ATP concentration of 10 μM. Radioactivity was then monitored using the filter binding method after incubation of the reaction mixture for 2 h at room temperature. At given concentrations of inhibitor, biochemical potency was measured by the percent remaining kinase activity with respect to the vehicle (dimethyl sulfoxide) reaction. Curve fits and IC50 values were then obtained using the PRISM program (GraphPad Software). […]

Chain of RIP3 (Q9Y572 whole entry): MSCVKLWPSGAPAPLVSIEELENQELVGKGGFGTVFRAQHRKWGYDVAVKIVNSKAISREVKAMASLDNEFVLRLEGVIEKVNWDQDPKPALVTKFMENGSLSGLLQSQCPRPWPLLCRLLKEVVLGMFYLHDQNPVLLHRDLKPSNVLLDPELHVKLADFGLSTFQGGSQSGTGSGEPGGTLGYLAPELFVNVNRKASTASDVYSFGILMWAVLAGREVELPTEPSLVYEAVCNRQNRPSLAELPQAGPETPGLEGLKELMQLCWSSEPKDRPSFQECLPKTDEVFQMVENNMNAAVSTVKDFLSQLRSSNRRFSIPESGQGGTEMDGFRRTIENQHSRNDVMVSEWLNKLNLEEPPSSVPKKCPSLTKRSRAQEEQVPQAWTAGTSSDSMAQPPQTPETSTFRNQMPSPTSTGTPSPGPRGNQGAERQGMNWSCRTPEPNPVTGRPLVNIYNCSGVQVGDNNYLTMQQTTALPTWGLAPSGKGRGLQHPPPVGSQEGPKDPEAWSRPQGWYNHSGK

Question: How did the IC50 turn out when `Cc1ccc(Oc2ccnc3cc(-c4cnn(C5CCNCC5)c4)ccc23)cc1` [HS-1371, 7-(1-(Piperidin-4-yl)-1H-pyrazol-4-yl)-4-(p-tolyloxy)quinoline] was run?
Answer: 20.8 nM
